According to publication PMC4109680, “Identification and Preclinical Pharmacology of the γ-Secretase Modulator BMS-869780” (International Journal of Alzheimer's Disease, 2014):

Columns and labels:
[1] = Pharmacokinetics in male Sprague-Dawley rats; format: in vivo; details: plasma, Rat
Experimental: Male Sprague-Dawley (SD) rats (300–350 g) were fasted overnight, and three per group received BMS-869780 either as an intravenous (IV) infusion in PEG400 : ethanol (90 : 10 w/w) at 1 mg/kg over 5 min via the jugular vein or as nanosuspension (d50 ca. 300 nm) by oral gavage at 5 mg/kg in Povidone K-30 : sodium lauryl sulfate : water (2.5 : 0.12 : 97.38 w/w/w/w). For the IV infusion, serial blood samples were obtained before dose and at 0.17, 0.25, 0.5, 0.75, 1, 2, 4, 6, 8, and 24 hours after dose. For the PO nanosuspension, serial blood samples were obtained before dose and at 0.25, 0.5, 0.75, 1, 2, 4, 6, 8, and 24 h after dose. Blood samples, ~0.3 mL, for all studies were collected from the jugular vein into K3EDTA-containing tubes and then centrifuged at 4°C (1500–2000 ×g) to obtain plasma, which was stored at −20°C until analysis by LC/MS/MS. In male beagle dogs, the PK of BMS-869780 was evaluated in a cross-over study design with a one-week washout between treatments. Dogs were fasted overnight, and three animals (9.5 to 10.7 kg) received BMS-869780 by IV infusion at 1 mg/kg over 5 minutes in PEG400 : ethanol (90 : 10 w/w) or as nanosuspension (d50 ca. 300 nm) by oral gavage at 5 mg/kg in Povidone K-30 : sodium lauryl sulfate : water (2.5 : 0.12 : 97.38 w/w/w/w). Serial blood samples (~0.3 mL) were collected from a saphenous vein into K3EDTA-containing tubes before dose and at 0.083, 0.17, 0.25, 0.5, 0.75, 1, 2, 4, 6, 8, and 24 hours after IV dose, and 0.25, 0.5, 0.75, 1, 2, 4, 6, 8, and 24 hours after oral dose, followed by centrifugation at 4°C (1500 to 2000 ×g) to obtain plasma. Samples were stored at −20°C until analysis of BMS-869780 levels by LC-MS/MS. In male cynomolgus monkeys, the PK of BMS-869780 was evaluated in a cross-over study design with a 1-week washout between treatments. Following an overnight fast, three animals (4.5 to 8 kg) received BMS-869780 by IV infusion via a femoral vein at 1 mg/kg over 10 minutes in PEG400 : ethanol (90 : 10), or by oral gavage at 5 mg/kg in Povidone K-30 : sodium lauryl sulfate : water (2.5 : 0.12 : 97.38). Serial blood samples, ~0.3 mL, were collected from a femoral artery into K3EDTA-containing tubes before dose and at 0.083, 0.17, 0.25, 0.5, 0.75, 1, 2, 4, 6, 8, and 24 hours after IV dose, and 0.25, 0.5, 0.75, 1, 2, 4, 6, 8, and 24 hours after oral dose, followed by centrifugation at 4°C (1500 to 2000 ×g) to obtain plasma. Samples were stored at −20°C until analysis of BMS-869780 levels by LC-MS/MS. The PK parameters of BMS-869780 were obtained by noncompartmental analysis of plasma concentration versus time data (WinNonlin software, Version 5.0; Pharsight Corporation, Mountain View, CA). The peak concentration (C max) and time for C max (T max) were recorded directly from experimental observations. The area under the curve from time zero to the last sampling time (AUC^0-T) and the area under the curve from time zero to infinity (AUC^INF) were calculated using a combination of linear and log trapezoidal summations. The total plasma clearance (CLTp), steady-state volume of distribution (Vss), apparent elimination half-life (T 1/2), and mean residence time (MRT) were estimated after IV administration. The absolute oral bioavailability (F) was estimated as the ratio of dose-normalized AUC values following oral and IV doses.
Figure 9 Pharmacokinetics (PK) of BMS-869780 across species for prediction of human PK. Rats, dogs, and cynomolgus monkeys were dosed with BMS-869780 intravenously (IV ▲) at 1 mg/kg or oral nanosuspension (PO ●) at 5 mg/kg. Plasma concentrations of BMS-869780 were determined for up to 24 hours after the dose. (a) Rat. (b) Dog. (c) Cynomolgus monkey.

[2] = Plasma protein bound fraction, rat; format: in vitro ADME
brain Aβ1-42 = test: Rat time course PK/PD, oral dose, indirect response model; format: in vivo; details: Rat 3 mg/kg PO solution (predicted steady state after 3 daily doses)

Structure (SMILES): COc1cc(Nc2nc3n(n2)CCCC[C@H]3c2ccc(F)cc2)ccc1-n1cnc(Cl)c1 [BMS-869780]
- AUC(0-t) ([1]; IV 1 mg/kg): 1.48 ± 0.121 µM·h
- MRT ([1]; IV 1 mg/kg): 1 ± 0.2 h
- clearance ([1]; IV 1 mg/kg): 24.3 ± 1.7 mL/min/kg
- half-life ([1]; IV 1 mg/kg): 2 ± 0.3 h
- Vd ([1]; IV 1 mg/kg, read-out: Vss): 1.8 ± 0.5 L/kg
- AUC(0-t) ([1]; PO suspension 5 mg/kg): 4 ± 0.964 µM·h
- Cmax ([1]; PO suspension 5 mg/kg): 674 ± 227 nM
- Tmax ([1]; PO suspension 5 mg/kg): 3.3 ± 1.2 h
- bioavailability ([1]; PO suspension 5 mg/kg): 54%
- protein bound fraction [2]: 99.5%
- Brain Aβ ABEC 24 hr Aβ1-42 (brain Aβ1-42): 26.9%
- Plasma AUC 0–24 hr (brain Aβ1-42): 18.6 µM·h
